From paper PMC4284078 (Virology, 2014)

Experiment: FTIR spectroscopy secondary structure
Type: physicochemical
Conditions: 2 mM peptide in deuterated 10 mM phosphate buffer pD 5.6, 25°C, means of four separate determinations, SE ± 5% or better

Substance	% Conformation Disordered	% Conformation Turn	% Conformation α-Helix	% Conformation β-Sheet
Pal-Ahx-Ahx- Arg Cys^S- Arg Phe Arg Val D-Pro Cha His Arg Tyr Arg Cys^S- Arg -CON H2 (disulfide) [HCV6]	14.40%	20.39%	12.34%	52.87%
Cys^S- Ser Phe Arg Val Gly Leu His Glu Tyr Pro Cys^s -CON H2 (disulfide) [HCV3]	12.04%	21.96%	11.60%	54.34%
Val Ser Phe Arg Val Gly Leu His Glu Tyr Pro Val -CON H2 [HCV1]	23.74%	31.05%	2.10%	43.11%
Arg Cys^S- Arg Phe Arg Val D-Pro Cha His Arg Tyr Arg Cys^s Arg -CON H2 (disulfide) [HCV5]	12.83%	25.72%	10.55%	50.90%
